Assay results from ChEMBL document CHEMBL4118127, “Structure activity relationship studies on rhodanines and derived enethiol inhibitors of metallo-β-lactamases” (Bioorg Med Chem, 2018).
Calls of active or inactive are those of the source. No rule for the calls is given here.

Experiments:
[1] = molecular target: Beta-lactamase TEM (Bacteria) (UniProt P62593); test: Inhibition of recombinant N-terminal His-tagged Escherichia coli TEM1 (24 to 286 residues) expressed in Escherichia coli BL21(DE3) at 200 uM using FC5 as substrate
Sequence of Beta-lactamase TEM (Bacteria) (P62593 whole entry, the tested form may be a part): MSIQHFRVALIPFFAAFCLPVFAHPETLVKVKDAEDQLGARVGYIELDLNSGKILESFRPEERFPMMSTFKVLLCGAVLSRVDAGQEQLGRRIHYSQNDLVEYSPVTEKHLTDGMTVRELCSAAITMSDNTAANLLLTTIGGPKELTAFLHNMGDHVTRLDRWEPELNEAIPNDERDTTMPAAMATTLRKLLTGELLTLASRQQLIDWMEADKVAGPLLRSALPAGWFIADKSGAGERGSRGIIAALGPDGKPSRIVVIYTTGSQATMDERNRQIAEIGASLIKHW

[2] = molecular target: Beta-lactamase CTX-M (Escherichia coli) (UniProt Q9EXV5); test: Inhibition of recombinant Escherichia coli EO516 N-terminal His6-tagged CTX-M using FC5 as substrate at 200 uM preincubated at 10 to 300 mins followed by substrate addition
[3] = molecular target: Beta-lactamase (Escherichia coli K-12) (UniProt P00811); test: Inhibition of recombinant Escherichia coli AmpC at 200 uM using FC5 as substrate preincubated at 10 to 300 mins followed by substrate addition
Sequence of Beta-lactamase (Escherichia coli K-12) (P00811 whole entry): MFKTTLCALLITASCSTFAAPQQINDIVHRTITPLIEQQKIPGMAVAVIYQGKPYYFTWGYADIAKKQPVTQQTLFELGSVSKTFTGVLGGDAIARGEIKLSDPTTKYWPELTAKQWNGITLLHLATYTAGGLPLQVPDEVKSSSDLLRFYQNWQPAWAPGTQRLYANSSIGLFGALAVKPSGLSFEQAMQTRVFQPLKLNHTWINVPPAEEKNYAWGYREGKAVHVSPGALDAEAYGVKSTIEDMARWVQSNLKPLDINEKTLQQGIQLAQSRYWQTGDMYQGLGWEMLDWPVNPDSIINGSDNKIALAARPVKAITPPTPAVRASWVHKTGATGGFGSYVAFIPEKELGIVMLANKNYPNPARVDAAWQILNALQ

[4] = molecular target: Beta-lactamase OXA-10 (Pseudomonas aeruginosa) (UniProt P14489); test: Inhibition of recombinant Pseudomonas aeruginosa OXA-10 at 200 uM using FC5 as substrate
Sequence of Beta-lactamase OXA-10 (Pseudomonas aeruginosa) (P14489 whole entry): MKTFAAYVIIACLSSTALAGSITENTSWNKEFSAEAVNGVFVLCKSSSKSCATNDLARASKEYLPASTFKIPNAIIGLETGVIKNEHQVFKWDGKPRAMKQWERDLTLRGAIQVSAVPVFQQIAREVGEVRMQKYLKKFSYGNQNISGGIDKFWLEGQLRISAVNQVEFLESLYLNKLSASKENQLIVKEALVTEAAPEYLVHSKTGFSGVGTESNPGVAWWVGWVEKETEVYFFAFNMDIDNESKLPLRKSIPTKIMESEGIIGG

Row | inhibition [1] | inhibition [2] | inhibition [3] | inhibition [4] | SMILES
1 | inactive | inactive | inactive | inactive | O=C(O)/C(S)=C/c1c(F)ccc(F)c1F
2 | inactive | inactive | inactive | inactive | CN1CCN(NC(=O)CN2C(=O)/C(=C/c3ccccc3Cl)SC2=S)CC1
3 | inactive | inactive | inactive | inactive | Cc1cccc(C)c1/C=C1\SC(=S)N(CC(=O)O)C1=O
4 | inactive | inactive | inactive | inactive | O=C(O)/C(S)=C/c1ccc(Br)cc1
5 | inactive | inactive | inactive | inactive | CN1CCN(NC(=O)CN2C(=O)/C(=C/c3c(F)cccc3F)SC2=S)CC1
6 | inactive | inactive | inactive | inactive | COc1ccc(/C=C2\SC(=S)N(CC(=O)NN3CCN(C)CC3)C2=O)cc1
7 | inactive | inactive | inactive | inactive | O=C(O)/C(S)=C/c1ccccc1I
8 | inactive | inactive | inactive | inactive | O=C(O)CN1C(=O)/C(=C/c2c(F)cccc2F)SC1=S
9 | inactive | inactive | inactive | inactive | O=C(O)/C(S)=C/c1ccccc1Cl
10 | inactive | inactive | inactive | inactive | O=C(O)CN1C(=O)/C(=C/c2cccc(Cl)c2Cl)SC1=S
11 | inactive | inactive | inactive | inactive | O=C(O)CN1C(=O)/C(=C/c2cc(Cl)ccc2Cl)SC1=S
12 | inactive | inactive | inactive | inactive | Cc1ccc(/C=C2\SC(=S)N(CC(=O)NN3CCN(C)CC3)C2=O)cc1
13 | inactive | inactive | inactive | inactive | CN1CCN(NC(=O)CN2C(=O)/C(=C/c3ccccc3Br)SC2=S)CC1
14 | inactive | inactive | inactive | inactive | O=C(O)/C(S)=C/c1ccccc1Br
15 | inactive | inactive | inactive | inactive | COc1ccc(/C=C2\SC(=S)N(CC(=O)O)C2=O)cc1
16 | inactive | inactive | inactive | inactive | Cc1cccc(C)c1/C=C1\SC(=S)N(CC(=O)NN2CCN(C)CC2)C1=O
17 | inactive | inactive | inactive | inactive | CN1CCN(NC(=O)CN2C(=O)/C(=C/c3cc(Cl)ccc3Cl)SC2=S)CC1
18 | inactive | inactive | inactive | inactive | O=C(O)/C(S)=C/c1cc(Cl)ccc1Cl
19 | inactive | inactive | inactive | inactive | CN1CCN(NC(=O)CN2C(=O)/C(=C/c3c(F)ccc(F)c3F)SC2=S)CC1
20 | inactive | inactive | inactive | inactive | CN1CCN(NC(=O)CN2C(=O)/C(=C/c3c(Cl)ccc(Cl)c3Cl)SC2=S)CC1
21 | inactive | inactive | inactive | inactive | CN1CCN(NC(=O)CN2C(=O)/C(=C/c3c(Cl)cccc3Cl)SC2=S)CC1
22 | inactive | inactive | inactive | inactive | Cc1ccc(/C=C2\SC(=S)N(CC(=O)O)C2=O)cc1
23 | inactive | inactive | inactive | inactive | O=C(O)/C(S)=C/c1ccc(F)cc1
24 | inactive | inactive | inactive | inactive | O=C(O)CN1C(=O)/C(=C/c2c(Cl)cccc2Cl)SC1=S
25 | inactive | inactive | inactive | inactive | CN1CCN(NC(=O)CN2C(=O)/C(=C/c3ccccc3I)SC2=S)CC1

Row | inhibition [1] | inhibition [2] | inhibition [3] | inhibition [4] | SMILES
26 | inactive | inactive | inactive | inactive | O=C(O)CN1C(=O)/C(=C/c2ccc(F)cc2)SC1=S
27 | inactive | inactive | inactive | inactive | O=C(O)CN1C(=O)/C(=C/c2ccccc2Br)SC1=S
28 | inactive | inactive | inactive | inactive | O=C(O)CN1C(=O)/C(=C/c2ccc(Br)cc2)SC1=S
29 | inactive | inactive | inactive | inactive | CN1CCN(NC(=O)CN2C(=O)/C(=C/c3csc4ccccc34)SC2=S)CC1
30 | inactive | inactive | inactive | inactive | O=C(O)CN1C(=O)/C(=C/c2csc3ccccc23)SC1=S
31 | inactive | inactive | inactive | inactive | O=C(O)/C(S)=C/c1c(F)cccc1F
32 | inactive | inactive | inactive | inactive | Cc1cccc(C)c1/C=C(\S)C(=O)O
33 | inactive | inactive | inactive | inactive | CN1CCN(NC(=O)CN2C(=O)/C(=C/c3ccc(F)cc3)SC2=S)CC1
34 | inactive | inactive | inactive | inactive | O=C(O)CN1C(=O)/C(=C/c2ccccc2)SC1=S
35 | inactive | inactive | inactive | inactive | O=C(O)/C(S)=C/c1ccccc1F
36 | inactive | inactive | inactive | inactive | O=C(O)/C(S)=C/c1csc2ccccc12
37 | inactive | inactive | inactive | inactive | O=C(O)CN1C(=O)/C(=C/c2c(F)ccc(F)c2F)SC1=S
38 | inactive | inactive | inactive | inactive | O=C(O)/C(S)=C/c1c(Cl)cccc1Cl
39 | inactive | inactive | inactive | inactive | O=C(O)CN1C(=O)/C(=C/c2ccccc2Cl)SC1=S
40 | inactive | inactive | inactive | inactive | CN1CCN(NC(=O)CN2C(=O)/C(=C/c3cccc(Cl)c3Cl)SC2=S)CC1
41 | inactive | inactive | inactive | inactive | CN1CCN(NC(=O)CN2C(=O)/C(=C/c3ccccc3F)SC2=S)CC1
42 | inactive | inactive | inactive | inactive | O=C(O)CN1C(=O)/C(=C/c2c(F)cccc2Cl)SC1=S
43 | inactive | inactive | inactive | inactive | CN1CCN(NC(=O)CN2C(=O)/C(=C/c3c(F)cccc3Cl)SC2=S)CC1
44 | inactive | inactive | inactive | inactive | O=C(O)/C(S)=C/c1cccc(Cl)c1Cl
45 | inactive | inactive | inactive | inactive | O=C(O)CN1C(=O)/C(=C/c2ccccc2I)SC1=S
46 | inactive | inactive | inactive | inactive | O=C(O)CN1C(=O)/C(=C/c2ccccc2F)SC1=S
47 | inactive | inactive | inactive | inactive | O=C(O)/C(S)=C/c1ccccc1
48 | inactive | inactive | inactive | inactive | COc1ccc(/C=C(\S)C(=O)O)cc1
49 | inactive | inactive | inactive | inactive | O=C(O)/C(S)=C/c1c(F)cccc1Cl
50 | inactive | inactive | inactive | inactive | CN1CCN(NC(=O)CN2C(=O)/C(=C/c3ccccc3)SC2=S)CC1

Row | SMILES | inhibition [1] | inhibition [2] | inhibition [3] | inhibition [4]
51 | O=C(O)/C(S)=C/c1c(Cl)ccc(Cl)c1Cl | inactive | inactive | inactive | inactive
